Test results: patent publication US11117892B2, “Pyrrolo-pyridine derivative compound, method for preparing same, and pharmaceutical composition containing same as active ingredient for prevention or treatment of protein kinase-related diseases” (DAEGU-GYEONGBUK MEDICAL INNOVATION FOUNDATION, priority 2017, dated 2021)

Key:
Test in all cases: scanMAX Kinase assay panel
Type in all cases: binding
ROCK1 = ROCK1 (Homo sapiens (Human), UniProt Q13464); conditions: read-out: % control
Experimental: (§1) DiscoverX Co. was asked to measure the enzyme (kinase) selectivity, and the experiment was performed using scanMAX™ Kinase assay panel.
(§2) (Example Compound−Positive Control)/(Negative Control−Positive Control)×100 [Equation 1]
(§3) Herein, the positive control indicates the compound showing the % control of 0%, and the negative control indicates DMSO showing the % control of 100%.

TRKA = TRKA (Homo sapiens (Human), UniProt P04629); conditions: read-out: % control
TRKA, sequence (P04629 33-796): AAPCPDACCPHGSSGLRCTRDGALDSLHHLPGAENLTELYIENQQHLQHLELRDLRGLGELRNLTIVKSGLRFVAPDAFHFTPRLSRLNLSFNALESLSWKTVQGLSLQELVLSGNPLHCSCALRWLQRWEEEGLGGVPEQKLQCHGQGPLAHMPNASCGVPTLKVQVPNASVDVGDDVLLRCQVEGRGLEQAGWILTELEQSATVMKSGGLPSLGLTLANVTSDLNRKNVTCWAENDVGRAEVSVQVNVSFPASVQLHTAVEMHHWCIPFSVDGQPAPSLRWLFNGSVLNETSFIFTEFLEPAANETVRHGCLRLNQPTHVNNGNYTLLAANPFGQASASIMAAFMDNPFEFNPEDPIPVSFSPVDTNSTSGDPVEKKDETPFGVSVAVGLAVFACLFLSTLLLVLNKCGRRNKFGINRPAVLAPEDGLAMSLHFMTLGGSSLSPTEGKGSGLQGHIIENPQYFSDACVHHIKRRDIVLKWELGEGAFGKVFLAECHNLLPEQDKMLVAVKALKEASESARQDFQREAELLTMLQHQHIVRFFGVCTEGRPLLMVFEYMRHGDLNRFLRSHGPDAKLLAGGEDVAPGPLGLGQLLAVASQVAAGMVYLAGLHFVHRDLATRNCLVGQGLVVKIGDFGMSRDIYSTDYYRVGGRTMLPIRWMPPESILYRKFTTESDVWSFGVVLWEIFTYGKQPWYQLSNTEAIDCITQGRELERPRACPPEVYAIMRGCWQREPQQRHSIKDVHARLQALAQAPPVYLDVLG
Experimental: as §1, §2, §3

ACVR1B = ACVR1B (Homo sapiens (Human), UniProt P36896); conditions: read-out: % control
Experimental: as §1, §2, §3

MAP4K3 = MAP4K3 (Homo sapiens (Human), UniProt Q8IVH8); conditions: read-out: % control
Experimental: as §1, §2, §3

MST1R = MST1R (Homo sapiens (Human), UniProt Q04912); conditions: read-out: % control
Experimental: as §1, §2, §3

EPHB3 = EPHB3 (Homo sapiens (Human), UniProt P54753); conditions: read-out: % control
Experimental: as §1, §2, §3

PFTAIRE2 = PFTAIRE2 (Homo sapiens (Human), UniProt Q96Q40); conditions: read-out: % control
Experimental: as §1, §2, §3

KIT(A829P) = KIT(A829P) (Homo sapiens (Human), UniProt P10721, A829P); conditions: read-out: % control
Experimental: as §1, §2, §3

HUNK = HUNK (Homo sapiens (Human), UniProt P57058); conditions: read-out: % control
Experimental: as §1, §2, §3

LKB1 = LKB1 (Homo sapiens (Human), UniProt Q15831); conditions: read-out: % control
LKB1, sequence (Q15831 whole entry): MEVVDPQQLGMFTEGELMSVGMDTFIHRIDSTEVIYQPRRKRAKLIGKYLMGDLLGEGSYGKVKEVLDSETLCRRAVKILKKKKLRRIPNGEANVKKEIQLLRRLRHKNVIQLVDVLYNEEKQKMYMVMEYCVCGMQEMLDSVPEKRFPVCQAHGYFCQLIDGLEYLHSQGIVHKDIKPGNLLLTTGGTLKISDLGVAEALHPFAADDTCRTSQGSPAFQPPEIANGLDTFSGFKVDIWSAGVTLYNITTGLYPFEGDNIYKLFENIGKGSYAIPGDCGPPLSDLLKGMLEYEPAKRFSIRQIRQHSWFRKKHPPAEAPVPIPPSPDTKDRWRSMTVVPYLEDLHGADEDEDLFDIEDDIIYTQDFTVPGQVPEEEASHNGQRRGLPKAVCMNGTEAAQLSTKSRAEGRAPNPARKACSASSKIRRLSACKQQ
Experimental: as §1, §2, §3

EPHA1 = EPHA1 (Homo sapiens (Human), UniProt P21709); conditions: read-out: % control
EPHA1, sequence (P21709 26-976): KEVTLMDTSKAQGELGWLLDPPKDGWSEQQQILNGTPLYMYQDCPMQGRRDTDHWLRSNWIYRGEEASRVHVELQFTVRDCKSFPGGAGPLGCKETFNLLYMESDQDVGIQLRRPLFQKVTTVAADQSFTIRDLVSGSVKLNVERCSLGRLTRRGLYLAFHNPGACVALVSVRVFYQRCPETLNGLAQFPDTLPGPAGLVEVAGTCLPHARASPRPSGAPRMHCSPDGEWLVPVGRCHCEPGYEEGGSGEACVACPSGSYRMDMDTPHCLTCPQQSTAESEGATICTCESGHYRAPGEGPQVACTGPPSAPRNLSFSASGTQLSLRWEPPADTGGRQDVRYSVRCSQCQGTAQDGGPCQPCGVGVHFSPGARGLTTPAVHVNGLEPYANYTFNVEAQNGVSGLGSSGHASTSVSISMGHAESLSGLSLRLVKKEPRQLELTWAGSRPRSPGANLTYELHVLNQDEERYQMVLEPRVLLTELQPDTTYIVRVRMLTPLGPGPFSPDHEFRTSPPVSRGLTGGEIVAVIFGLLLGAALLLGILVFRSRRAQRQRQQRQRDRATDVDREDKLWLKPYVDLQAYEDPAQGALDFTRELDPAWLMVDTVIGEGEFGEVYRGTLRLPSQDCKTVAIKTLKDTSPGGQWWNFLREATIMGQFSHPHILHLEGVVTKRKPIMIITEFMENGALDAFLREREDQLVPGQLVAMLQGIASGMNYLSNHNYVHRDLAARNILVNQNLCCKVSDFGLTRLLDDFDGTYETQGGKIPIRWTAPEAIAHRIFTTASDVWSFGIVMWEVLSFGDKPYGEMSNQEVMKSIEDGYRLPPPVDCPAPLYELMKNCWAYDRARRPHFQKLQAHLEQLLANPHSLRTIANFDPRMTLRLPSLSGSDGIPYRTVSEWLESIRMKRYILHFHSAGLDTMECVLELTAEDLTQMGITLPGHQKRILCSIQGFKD
Experimental: as §1, §2, §3

SRC = SRC (Homo sapiens (Human), UniProt P12931); conditions: read-out: % control
Experimental: as §1, §2, §3

EGFR(L858R) = EGFR(L858R) (Homo sapiens (Human), UniProt P00533, L858R); conditions: read-out: % control
EGFR(L858R), sequence (P00533 25-1210 L858R): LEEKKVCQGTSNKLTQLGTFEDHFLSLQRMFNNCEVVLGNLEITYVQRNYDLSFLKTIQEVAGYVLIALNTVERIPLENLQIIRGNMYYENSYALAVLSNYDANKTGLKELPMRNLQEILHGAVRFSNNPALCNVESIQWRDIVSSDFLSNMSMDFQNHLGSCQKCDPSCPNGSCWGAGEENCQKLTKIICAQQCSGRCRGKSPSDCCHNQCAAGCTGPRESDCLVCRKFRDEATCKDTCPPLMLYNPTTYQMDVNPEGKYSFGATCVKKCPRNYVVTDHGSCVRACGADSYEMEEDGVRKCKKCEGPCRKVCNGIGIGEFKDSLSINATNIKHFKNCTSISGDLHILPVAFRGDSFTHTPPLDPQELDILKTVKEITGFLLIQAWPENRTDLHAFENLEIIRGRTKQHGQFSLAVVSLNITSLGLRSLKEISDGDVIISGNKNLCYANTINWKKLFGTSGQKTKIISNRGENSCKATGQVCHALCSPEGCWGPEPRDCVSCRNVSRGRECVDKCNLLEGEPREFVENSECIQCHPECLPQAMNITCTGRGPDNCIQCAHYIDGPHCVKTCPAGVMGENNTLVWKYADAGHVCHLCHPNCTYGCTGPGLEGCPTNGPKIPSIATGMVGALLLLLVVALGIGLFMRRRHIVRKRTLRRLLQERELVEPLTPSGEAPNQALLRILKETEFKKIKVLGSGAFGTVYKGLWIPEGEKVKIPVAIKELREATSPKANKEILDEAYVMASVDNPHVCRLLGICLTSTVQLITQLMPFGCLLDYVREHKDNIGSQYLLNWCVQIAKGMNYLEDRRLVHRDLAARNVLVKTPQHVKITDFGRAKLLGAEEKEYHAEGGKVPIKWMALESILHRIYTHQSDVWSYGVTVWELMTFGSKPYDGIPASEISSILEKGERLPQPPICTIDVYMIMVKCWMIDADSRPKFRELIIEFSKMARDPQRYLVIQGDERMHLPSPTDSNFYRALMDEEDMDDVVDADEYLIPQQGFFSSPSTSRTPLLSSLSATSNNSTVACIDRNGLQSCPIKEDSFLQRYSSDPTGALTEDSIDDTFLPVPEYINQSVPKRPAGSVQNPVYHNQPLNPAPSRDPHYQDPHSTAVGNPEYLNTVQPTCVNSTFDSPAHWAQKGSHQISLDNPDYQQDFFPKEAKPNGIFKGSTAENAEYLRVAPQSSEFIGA
Experimental: as §1, §2, §3

WNK2 = WNK2 (Homo sapiens (Human), UniProt Q9Y3S1); conditions: read-out: % control
Experimental: as §1, §2, §3

FLT3(ITD, D835V) = conditions: 1 uM
Experimental: as §1, §2, §3

[1] = target: RSK1(Kin.Dom.2-C-terminal) (Homo sapiens (Human), UniProt Q15418); conditions: read-out: % control
RSK1(Kin.Dom.2-C-terminal), sequence (Q15418 418-675): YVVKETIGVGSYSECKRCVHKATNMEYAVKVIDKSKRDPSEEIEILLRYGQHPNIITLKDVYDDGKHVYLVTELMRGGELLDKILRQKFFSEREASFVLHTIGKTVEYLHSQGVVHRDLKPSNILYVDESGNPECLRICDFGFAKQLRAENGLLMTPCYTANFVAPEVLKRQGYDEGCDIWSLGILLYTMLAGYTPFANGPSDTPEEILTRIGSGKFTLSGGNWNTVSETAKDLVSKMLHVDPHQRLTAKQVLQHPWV
Experimental: as §1, §2, §3

ADCK4 = ADCK4 (Homo sapiens (Human), UniProt Q96D53); conditions: read-out: % control
Experimental: as §1, §2, §3

MINK = MINK (Homo sapiens (Human), UniProt Q8N4C8); conditions: read-out: % control
Experimental: as §1, §2, §3

KIT(V559D, T670I) = KIT(V559D, T670I) (Homo sapiens (Human), UniProt P10721, T670I/V559D); conditions: read-out: % control
Experimental: as §1, §2, §3

EGFR(E746-A750del) = EGFR(E746-A750del) (Homo sapiens (Human), UniProt P00533, DEL746-750); conditions: read-out: % control
Experimental: as §1, §2, §3

FGFR4 = FGFR4 (Homo sapiens (Human), UniProt P22455); conditions: read-out: % control
FGFR4, sequence (P22455 22-802): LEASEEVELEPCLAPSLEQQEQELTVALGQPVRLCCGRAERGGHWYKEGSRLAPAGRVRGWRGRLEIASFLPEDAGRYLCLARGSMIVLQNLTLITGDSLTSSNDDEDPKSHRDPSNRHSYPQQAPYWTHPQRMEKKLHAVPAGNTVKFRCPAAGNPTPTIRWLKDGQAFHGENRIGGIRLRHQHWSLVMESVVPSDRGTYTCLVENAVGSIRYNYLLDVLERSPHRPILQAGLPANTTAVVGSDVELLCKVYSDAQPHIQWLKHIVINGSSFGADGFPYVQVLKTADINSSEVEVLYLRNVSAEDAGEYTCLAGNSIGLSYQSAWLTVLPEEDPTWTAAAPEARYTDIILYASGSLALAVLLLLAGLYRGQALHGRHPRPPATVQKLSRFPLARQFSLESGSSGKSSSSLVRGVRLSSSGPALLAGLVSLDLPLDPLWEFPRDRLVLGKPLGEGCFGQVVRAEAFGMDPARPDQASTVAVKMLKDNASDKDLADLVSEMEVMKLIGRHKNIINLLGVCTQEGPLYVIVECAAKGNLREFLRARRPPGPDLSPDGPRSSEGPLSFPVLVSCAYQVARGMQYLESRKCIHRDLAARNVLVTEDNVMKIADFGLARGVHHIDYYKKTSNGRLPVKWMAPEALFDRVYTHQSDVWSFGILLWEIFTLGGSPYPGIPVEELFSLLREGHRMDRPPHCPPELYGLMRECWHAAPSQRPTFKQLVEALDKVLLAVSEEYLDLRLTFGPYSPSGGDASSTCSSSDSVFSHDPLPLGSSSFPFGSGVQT
Experimental: as §1, §2, §3

CSNK2A2 = CSNK2A2 (Homo sapiens (Human), UniProt P19784); conditions: read-out: % control
Experimental: as §1, §2, §3

PCTK2 = PCTK2 (Homo sapiens (Human), UniProt Q00537); conditions: read-out: % control
Experimental: as §1, §2, §3

CDK7 = CDK7 (Homo sapiens (Human), UniProt P50613); conditions: read-out: % control
Experimental: as §1, §2, §3

CDC2L2 = CDC2L2 (Homo sapiens (Human), UniProt Q9UQ88); conditions: read-out: % control
Experimental: as §1, §2, §3

IKK-epsilon = IKK-epsilon (Homo sapiens (Human), UniProt Q14164); conditions: read-out: % control
Experimental: as §1, §2, §3

MLCK = MLCK (Homo sapiens (Human), UniProt Q32MK0); conditions: read-out: % control
Experimental: as §1, §2, §3

PKN2 = PKN2 (Homo sapiens (Human), UniProt Q16513); conditions: read-out: % control
Experimental: as §1, §2, §3

INSRR = INSRR (Homo sapiens (Human), UniProt P14616); conditions: read-out: % control
Experimental: as §1, §2, §3

MTOR = MTOR (Homo sapiens (Human), UniProt P42345); conditions: read-out: % control
Experimental: as §1, §2, §3

PDPK1 = PDPK1 (Homo sapiens (Human), UniProt O15530); conditions: read-out: % control
Experimental: as §1, §2, §3

BTK = BTK (Homo sapiens (Human), UniProt Q06187); conditions: read-out: % control
Experimental: as §1, §2, §3

MET(Y1235D) = MET(Y1235D) (Homo sapiens (Human), UniProt P08581, Y1235D); conditions: read-out: % control
Experimental: as §1, §2, §3

EPHB6 = EPHB6 (Homo sapiens (Human), UniProt O15197); conditions: read-out: % control
Experimental: as §1, §2, §3

ALK(L1196M) = ALK(L1196M) (Homo sapiens (Human), UniProt Q9UM73, L1196M); conditions: read-out: % control
Experimental: as §1, §2, §3

HIPK4 = HIPK4 (Homo sapiens (Human), UniProt Q8NE63); conditions: read-out: % control
HIPK4, sequence (Q8NE63 whole entry): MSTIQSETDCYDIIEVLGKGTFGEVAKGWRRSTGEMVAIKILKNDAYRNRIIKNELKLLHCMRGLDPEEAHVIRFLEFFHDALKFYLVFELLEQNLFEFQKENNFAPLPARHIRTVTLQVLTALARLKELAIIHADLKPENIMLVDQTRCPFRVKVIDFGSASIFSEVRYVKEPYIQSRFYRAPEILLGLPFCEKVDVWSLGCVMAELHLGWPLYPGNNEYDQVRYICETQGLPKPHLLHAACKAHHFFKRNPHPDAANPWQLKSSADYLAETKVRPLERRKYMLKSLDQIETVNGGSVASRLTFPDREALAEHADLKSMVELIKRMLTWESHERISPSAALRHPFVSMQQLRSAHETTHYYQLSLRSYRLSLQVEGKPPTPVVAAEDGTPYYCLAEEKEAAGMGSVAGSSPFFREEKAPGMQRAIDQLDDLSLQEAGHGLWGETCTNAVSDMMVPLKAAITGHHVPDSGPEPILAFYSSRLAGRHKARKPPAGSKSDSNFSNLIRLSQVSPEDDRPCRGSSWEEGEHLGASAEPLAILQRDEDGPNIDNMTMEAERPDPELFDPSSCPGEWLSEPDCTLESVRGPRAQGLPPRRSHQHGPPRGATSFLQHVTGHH
Experimental: as §1, §2, §3

ABL1-nonphosphorylated = ABL1-nonphosphorylated (Homo sapiens (Human), UniProt P00519); conditions: read-out: % control
Experimental: as §1, §2, §3

FAK = FAK (Homo sapiens (Human), UniProt Q05397); conditions: read-out: % control
Experimental: as §1, §2, §3

MRCKA = MRCKA (Homo sapiens (Human), UniProt Q5VT25); conditions: read-out: % control
Experimental: as §1, §2, §3

Row | Structure (SMILES) | remaining binding at 1 µM (ROCK1) | remaining binding at 1 µM (TRKA) | remaining binding at 1 µM (ACVR1B) | remaining binding at 1 µM (MAP4K3) | remaining binding at 1 µM (MST1R) | remaining binding at 1 µM (EPHB3) | remaining binding at 1 µM (PFTAIRE2) | remaining binding at 1 µM (KIT(A829P)) | remaining binding at 1 µM (HUNK) | remaining binding at 1 µM (LKB1) | remaining binding at 1 µM (EPHA1) | remaining binding at 1 µM (SRC) | remaining binding at 1 µM (EGFR(L858R)) | remaining binding at 1 µM (WNK2) | % control (FLT3(ITD, D835V)) | remaining binding at 1 µM [1] | remaining binding at 1 µM (ADCK4) | remaining binding at 1 µM (MINK) | remaining binding at 1 µM (KIT(V559D, T670I)) | remaining binding at 1 µM (EGFR(E746-A750del)) | also measured
1 | CCNc1cc(Nc2ccc(C(=O)N3CCC(N4CCOCC4)CC3)cc2OC)nc2[nH]cc(C#N)c12 [Example 18, 4-(ethylamino)-6-((2-methoxy-4-(4-morpholinopiperidine-1-carbonyl)phenyl)amino)-1H-pyrrolo[2,3-b]pyridine-3-carbonitrile] | 9.1% | 86% | 88% | 93% | 81% | 93% | 79% | 99% | 57% | 62% | 91% | 100% | 100% | 91% | 100% | 64% | 100% | 55% | 48% | 83% | remaining binding at 1 µM (FGFR4): 80%; remaining binding at 1 µM (CSNK2A2): 97%; remaining binding at 1 µM (PCTK2): 100%; remaining binding at 1 µM (CDK7): 55%; remaining binding at 1 µM (CDC2L2): 86%; remaining binding at 1 µM (IKK-epsilon): 96%; remaining binding at 1 µM (MLCK): 87%; remaining binding at 1 µM (PKN2): 92%; remaining binding at 1 µM (INSRR): 24%; remaining binding at 1 µM (MTOR): 86%; remaining binding at 1 µM (PDPK1): 99%; remaining binding at 1 µM (BTK): 99%; remaining binding at 1 µM (MET(Y1235D)): 100%; remaining binding at 1 µM (EPHB6): 78%; remaining binding at 1 µM (ALK(L1196M)): 13%; remaining binding at 1 µM (HIPK4): 100%; remaining binding at 1 µM (ABL1-nonphosphorylated): 97%; remaining binding at 1 µM (FAK): 78%; remaining binding at 1 µM (MRCKA): 100%
2 | CCNc1cc(Nc2ccc(C(=O)N3CCC(N4CCOCC4)CC3)cc2OC)nc2[nH]cc(C(F)(F)F)c12 [Example 57, (4-((4-(ethylamino)-3-(trifluoromethyl)-1H-pyrrolo[2,3-b]pyridin-6-yl)amino)-3-methoxyphenyl) (4-morpholinopiperidin-1-yl)methanone] | 100% | 100% | 82% | 91% | 70% | 85% | 94% | 100% | 51% | 92% | 78% | 100% | 100% | 100% | 100% | 77% | 75% | 100% | 78% | 98% | remaining binding at 1 µM (FGFR4): 92%; remaining binding at 1 µM (CSNK2A2): 80%; remaining binding at 1 µM (PCTK2): 98%; remaining binding at 1 µM (CDK7): 53%; remaining binding at 1 µM (CDC2L2): 88%; remaining binding at 1 µM (IKK-epsilon): 96%; remaining binding at 1 µM (MLCK): 78%; remaining binding at 1 µM (PKN2): 92%; remaining binding at 1 µM (INSRR): 60%; remaining binding at 1 µM (MTOR): 88%; remaining binding at 1 µM (PDPK1): 86%; remaining binding at 1 µM (BTK): 100%; remaining binding at 1 µM (MET(Y1235D)): 85%; remaining binding at 1 µM (EPHB6): 99%; remaining binding at 1 µM (ALK(L1196M)): 14%; remaining binding at 1 µM (HIPK4): 86%; remaining binding at 1 µM (ABL1-nonphosphorylated): 51%; remaining binding at 1 µM (FAK): 77%; remaining binding at 1 µM (MRCKA): 95%
